These results are taken from a compilation of properties of binary mixtures (doi:10.1016/j.molliq.2017.08.056).

A short description of this series: xn = mol fraction of the nth substance listed. Conditions: 101 kPa.

“And” between values parts separate entries of the source, which are not always exact repeats. Equal values may be shown once.

A word on the viscosity: it is the resistance of a fluid to flow. The low end stands for a thin fluid, the high end for a thick fluid. On to `CCCC[n+]1ccn(C)c1.[Br-]` + O, for which the electrical conductivity by setting is: (288.15 K, x1 = 0.0001) 0.0311 S/m and 0.0454 S/m and 0.0612 S/m; (298.15 K, x1 = 0.0001) 0.0389 S/m and 0.0568 S/m and 0.0759 S/m; (308.15 K, x1 = 0.0001) 0.069 S/m. Also, the viscosity (298.15 K, x1 = 0.0001) was 0.892 mPa·s and 0.894 mPa·s; the viscosity (308.15 K, x1 = 0.0001) is reported as 0.731 mPa·s.

Take `O` + CCCC[n+]1ccn(C)c1.[Br-]: the electrical conductivity by setting is: (288.15 K, x2 = 0) 0.0001 S/m; (298.15 K, x2 = 0) 0.0001 S/m; (308.15 K, x2 = 0) 0.0002 S/m. Moreover, the viscosity (288.15 K, x2 = 0) stood at 1.133 mPa·s.
